Reference: patent US20130317040A1, “METHODS FOR TREATING SYSTEMIC LUPUS ERYTHEMATOSUS USING HIV PROTEASE INHIBITORS” (The Feinstein Institute of Medical Research, priority 2010, published 2013)

How the values were obtained:
[1] = test system: lupus anti-dsDNA monoclonal antibody, R4A; experiment: Competitive ELISA, R4A binding to bound DWEYS peptide; set-up: species or system mouse; settings: for inhibition of R4A binding, DWEYS: competitive ELISA, bound D-DWEYS, at the most effective concentration of compound; for inhibition of R4A binding to D-DWEYS-5 peptide on ELISAs: R4A 2 μg/ml, 1 μM, 10 μM and 100 μM, highest concentrations showed the greatest inhibition
Protocol: (§1) To test whether these antiviral drugs might inhibit R4A binding, competitive ELISAs, with bound DWEYS peptide, bound dsDNA, or bound C1q protein, were performed. […] Activity in these ELISAs is predictive of binding activity with naturally occurring anti-dsDNA antibodies in lupus patients.
(§2) ELISAs. […] Antigens were absorbed to microtiter plate wells (either D-DWEYS (20 μg/ml) in PBS, calf thymus DNA (100 μg/ml) in NaHCO3 (0.1M, pH 8.6) or full length complement component C1q (10-20 μg/ml) in PBS) overnight at 37° C. […] The competitive ELISA was performed as described, using R4A monoclonal antibodies (2-20 μg/ml). […] The plates were washed and alkaline phosphatase-conjugated goat anti-mouse IgG antibody was added for 1 h at 37° C.

[2] = test system: lupus anti-dsDNA monoclonal antibody, R4A; experiment: Competitive ELISA, R4A binding to bound dsDNA (calf thymus DNA); set-up: species or system mouse; settings: for inhibition of R4A binding, DNA: competitive ELISA, bound calf thymus DNA, at the most effective concentration of compound
Protocol: as §1, §2

[3] = test system: lupus anti-dsDNA monoclonal antibody, R4A; experiment: Competitive ELISA, R4A binding to bound C1q protein; set-up: species or system mouse; settings: at the most effective concentration of compound
Protocol: as §1, §2

[4] = test system: mouse monoclonal anti-dsDNA antibody, R4A; experiment: Deposition of R4A to kidney glomeruli ex vivo; format: binding; settings: detected with fluorescently-labeled secondary antibody
Source text: Nephrotoxicity: nelfinavir was also found to suppress pathologic deposition of mouse monoclonal anti-dsDNA antibody, […], to kidney glomeruli ex vivo. […] For methodology see Bloom, O. et al., (2011), PNAS 108:10255-10259 and Zhang, J. et al., (2009), J. Autoimmun. 33:270-274.

[5] = test system: lupus patient sera components binding to DNA (anti-dsDNA antibodies); experiment: ELISA, lupus patient sera binding to DNA; set-up: species or system human; settings: compound at 1, 10 and 100 micromolar; sera from lupus patients with elevated anti-dsDNA titers
Source text: In early tests, inhibition of lupus patient sera components binding to DNA by nelfinavir was observed (data not shown). Sera, collected from lupus patients with moderately active disease and elevated titers of anti-dsDNA antibodies, was used for an ELISA assay for binding to DNA. The addition of nelfinavir in micromolar concentrations of 1, 10 and 100 decreased DNA binding by an average of 43%.

[6] = test system: R4A-induced apoptosis in the central nervous system; experiment: R4A-induced neurotoxicity in vivo, hippocampal injection, TUNEL staining; settings: R4A pre-incubated with inhibitor 15 min at 37° C., injected into hippocampus; brain slices after 48 hours
Protocol: Neurotoxicity: protection from R4A-induced apoptosis in the central nervous system was assessed by TUNEL staining. […] R4A was pre-incubated with vehicle or HIV protease inhibitors for 15 min. at 37° C. The preparation was then stereotaxically injected into the hippocampus of test animals. After 48 hours, brain slices at the injection site were subjected to TUNEL staining. […] For methodology see Bloom, O. et al., (2011), supra, and Zhang, J. et al., (2009), supra.

[7] = in vivo; cited from earlier work
cytochrome P-450 enzymes = settings: cited from earlier work
[8] = R4A 5 μg/ml, compound at 25 μM and 50 μM

Row | Compound | inhibition of R4A binding, DWEYS [1] | inhibition of R4A binding, DNA [2] | inhibition of R4A binding, C1q assay [3] | inhibition of R4A binding to D-DWEYS-5 peptide on ELISAs [1] | R4A binding (deposition) to kidney glomeruli ex vivo [4] | inhibition of R4A binding to DWEYS peptide on ELISAs [1, 8] | inhibition of R4A binding to DNA on ELISAs [2, 8] | decrease of lupus patient sera DNA binding (average) [5] | protection from R4A neurotoxicity (TUNEL staining) [6] | time until steady state of the drug is achieved [7] | metabolizing cytochrome P-450 enzymes (cytochrome P-450 enzymes)
1 | CC(C)(C)NCC1CC2CCCCC2CN1CC(O)C(Cc1ccccc1)NCC(CCN)NCC1Nc2ccccc2CC1O (stereo not shown) [12W, 2-((4-amino-1-(4-(3-((tert-butylamino)methyl)octahydroisoquinolin-2(1H)-yl)-3-hydroxy-1-phenylbutan-2-ylamino)butan-2-ylamino)methyl)-1,2,3,4-tetrahydroquinolin-3-ol] | 31% | 32% | 18% | – | – | – | – | – | – | – | –
2 | COC(=O)N[C@H](C(=O)N[C@@H](Cc1ccccc1)[C@@H](O)CN(Cc1ccc(-c2ccccn2)cc1)NC(=O)[C@@H](NC(=O)OC)C(C)(C)C)C(C)(C)C [Atazanavir, atazanavir] | 46% | 38% | 64% | improved inhibition | only nelfinavir decreased | – | – | – | – | – | –
3 | CC(C)CN(C[C@@H](O)[C@H](Cc1ccccc1)NC(=O)O[C@H]1CO[C@H]2OCC[C@H]21)S(=O)(=O)c1ccc(N)cc1 [Darunavir, darunavir] | 16% | 3% | 0% | – | – | – | – | – | – | – | –
4 | Cc1cccc(C)c1OCC(=O)N[C@@H](Cc1ccccc1)[C@@H](O)C[C@H](Cc1ccccc1)NC(=O)[C@H](C(C)C)N1CCCNC1=O [Lopinavir, lopinavir] | 56% | 32% | 38% | improved inhibition | only nelfinavir decreased | – | – | – | – | – | –
5 | CC(C)c1nc(CN(C)C(=O)N[C@H](C(=O)N[C@@H](Cc2ccccc2)C[C@H](O)[C@H](Cc2ccccc2)NC(=O)OCc2cncs2)C(C)C)cs1 [Ritonavir, ritonavir] | 8% | 0% | 13% | – | – | – | – | – | – | – | –
6 | CC(C)(C)NC(=O)[C@@H]1C[C@@H]2CCCC[C@@H]2CN1C[C@@H](O)[C@H](Cc1ccccc1)NC(=O)[C@H](CC(N)=O)NC(=O)c1ccc2ccccc2n1 [Saquinavir, saquinavir] | 33% | 31% | 54% | improved inhibition | only nelfinavir decreased | – | – | – | – | – | –
7 | Cc1c(O)cccc1C(=O)N[C@@H](CSc1ccccc1)[C@H](O)CN1C[C@H]2CCCC[C@H]2C[C@H]1C(=O)NC(C)(C)C [nelfinavir] | – | – | – | – | decreased the R4A binding | Significant inhibition | Significant inhibition | 43% | block neurotoxicity | 6 days | CYP3A4, CYP2C19, CYP2C9, and CYP2D6
